From PMC12067438 (Journal of Medicinal Chemistry, 2025)

Tests used:
[1] = Plasma pharmacokinetics after single oral or intraperitoneal dose; type: in vivo, mouse; conditions: for Oral bioavailability (in words): 25 mg/kg oral, mice
[2] = test system: HCC515 xenograft model (SMARCA4 mutant); assay: HCC515 xenograft antitumor efficacy; type: in vivo, mouse; conditions: 5 mg/kg once daily, 19 days, 1% Tween 80 formulation
[3] = test system: H2023 xenograft model (SMARCA4 mutant); assay: H2023 xenograft antitumor efficacy; type: in vivo, mouse; conditions: 5 mg/kg once daily, 19 days
[4] = Mouse liver microsomal stability assay; type: in vitro ADME; conditions: for remaining (T = 60 min): mouse microsomal assay, with NADPH; for CLint scaled at 1 h / half-life at 1 h / microsomal CLint at 1 h: mouse, liver microsomes
[5] = test system: global proteome of H1792 SMARCA4-WT cell line; assay: Quantitative TMT mass spectrometry of global proteome; type: cell-based, human; conditions: 100 nM YDR1 48 h, 20 nM YD54 24 h
[6] = test system: YAP1; assay: YAP1 phosphorylation immunoblot in H322 cells; type: cell-based, human; conditions: H322 SMARCA4 mutant cells, 96 h; 1 µM YDR1, 0.1 µM YD54
[7] = test system: H2030 xenograft model (SMARCA4 mutant); assay: H2030 xenograft antitumor efficacy; type: in vivo, mouse; conditions: 5 mg/kg once daily, 17 days, 1% Tween 80 formulation
[8] = Human liver microsomal stability assay; type: in vitro ADME; conditions: for remaining (T = 60 min): with NADPH
[9] = test system: H1568 xenograft model (SMARCA4 mutant); assay: H1568 xenograft antitumor efficacy; type: in vivo, mouse; conditions: 40 mg/kg once daily, 13 days
[10] = target: SMARCA4 (Mus musculus, UniProt Q3TKT4); assay: PK/PD study: SMARCA4 in spleen by Western blot; type: in vivo; conditions: C57BL/6 and Crbn I391V mice, compared to SMARCA2
[11] = target: SMARCA2 (Homo sapiens, UniProt P51531); assay: SMARCA2 protein levels in xenograft tumors by Western blot; type: in vivo; conditions: H1568 xenograft efficacy study, 40 mg/kg once daily, 13 days
[12] = 21-day tolerability in mice; type: in vivo, mouse
[13] = test system: ERK; assay: pERK immunoblot in H2030 cells; conditions: sotorasib 0.5 µM, YDR1 or YD54 1.25 µM, 72 hours (YDR1), 48 hours (YD54)

SMARCA2, sequence (P51531 whole entry): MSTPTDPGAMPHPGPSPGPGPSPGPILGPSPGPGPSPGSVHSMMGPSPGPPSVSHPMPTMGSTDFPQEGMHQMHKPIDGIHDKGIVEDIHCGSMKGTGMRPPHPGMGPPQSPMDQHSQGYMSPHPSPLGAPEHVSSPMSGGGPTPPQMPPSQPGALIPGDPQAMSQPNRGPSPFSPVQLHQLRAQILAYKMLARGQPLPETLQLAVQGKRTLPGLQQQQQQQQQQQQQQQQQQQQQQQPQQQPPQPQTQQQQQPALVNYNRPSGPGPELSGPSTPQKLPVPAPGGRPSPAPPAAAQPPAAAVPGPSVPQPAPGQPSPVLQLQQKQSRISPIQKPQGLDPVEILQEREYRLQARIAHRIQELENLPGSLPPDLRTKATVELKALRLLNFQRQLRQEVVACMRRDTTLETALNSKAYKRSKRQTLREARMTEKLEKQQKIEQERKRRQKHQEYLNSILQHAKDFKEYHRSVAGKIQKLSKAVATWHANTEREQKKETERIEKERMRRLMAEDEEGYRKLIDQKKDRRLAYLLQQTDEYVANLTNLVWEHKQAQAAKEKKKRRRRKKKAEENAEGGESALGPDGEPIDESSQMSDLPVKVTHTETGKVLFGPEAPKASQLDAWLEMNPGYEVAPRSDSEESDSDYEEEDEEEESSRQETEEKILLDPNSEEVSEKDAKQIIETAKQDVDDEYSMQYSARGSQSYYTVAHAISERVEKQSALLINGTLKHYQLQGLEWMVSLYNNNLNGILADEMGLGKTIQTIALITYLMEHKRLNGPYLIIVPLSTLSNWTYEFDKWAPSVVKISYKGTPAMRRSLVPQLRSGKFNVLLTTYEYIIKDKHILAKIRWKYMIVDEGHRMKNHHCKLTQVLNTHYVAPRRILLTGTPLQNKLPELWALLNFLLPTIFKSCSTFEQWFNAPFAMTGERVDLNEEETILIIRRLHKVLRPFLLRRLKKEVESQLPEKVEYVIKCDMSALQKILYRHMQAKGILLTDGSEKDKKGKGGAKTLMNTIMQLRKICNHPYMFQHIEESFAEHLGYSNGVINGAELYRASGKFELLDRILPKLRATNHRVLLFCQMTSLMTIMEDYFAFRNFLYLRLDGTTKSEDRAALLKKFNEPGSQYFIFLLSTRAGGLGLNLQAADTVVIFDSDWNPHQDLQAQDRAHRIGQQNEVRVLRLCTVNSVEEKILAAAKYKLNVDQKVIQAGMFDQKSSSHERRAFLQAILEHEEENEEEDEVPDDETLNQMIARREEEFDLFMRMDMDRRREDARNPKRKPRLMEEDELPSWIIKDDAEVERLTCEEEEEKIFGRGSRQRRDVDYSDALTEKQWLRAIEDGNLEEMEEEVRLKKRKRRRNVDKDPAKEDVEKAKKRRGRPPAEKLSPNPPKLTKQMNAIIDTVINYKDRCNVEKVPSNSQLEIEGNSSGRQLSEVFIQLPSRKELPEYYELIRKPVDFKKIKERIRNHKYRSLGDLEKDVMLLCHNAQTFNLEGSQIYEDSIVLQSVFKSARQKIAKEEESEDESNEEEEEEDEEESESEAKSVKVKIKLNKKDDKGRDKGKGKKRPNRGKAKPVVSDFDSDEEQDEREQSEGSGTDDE
SMARCA4, sequence (Q3TKT4 whole entry): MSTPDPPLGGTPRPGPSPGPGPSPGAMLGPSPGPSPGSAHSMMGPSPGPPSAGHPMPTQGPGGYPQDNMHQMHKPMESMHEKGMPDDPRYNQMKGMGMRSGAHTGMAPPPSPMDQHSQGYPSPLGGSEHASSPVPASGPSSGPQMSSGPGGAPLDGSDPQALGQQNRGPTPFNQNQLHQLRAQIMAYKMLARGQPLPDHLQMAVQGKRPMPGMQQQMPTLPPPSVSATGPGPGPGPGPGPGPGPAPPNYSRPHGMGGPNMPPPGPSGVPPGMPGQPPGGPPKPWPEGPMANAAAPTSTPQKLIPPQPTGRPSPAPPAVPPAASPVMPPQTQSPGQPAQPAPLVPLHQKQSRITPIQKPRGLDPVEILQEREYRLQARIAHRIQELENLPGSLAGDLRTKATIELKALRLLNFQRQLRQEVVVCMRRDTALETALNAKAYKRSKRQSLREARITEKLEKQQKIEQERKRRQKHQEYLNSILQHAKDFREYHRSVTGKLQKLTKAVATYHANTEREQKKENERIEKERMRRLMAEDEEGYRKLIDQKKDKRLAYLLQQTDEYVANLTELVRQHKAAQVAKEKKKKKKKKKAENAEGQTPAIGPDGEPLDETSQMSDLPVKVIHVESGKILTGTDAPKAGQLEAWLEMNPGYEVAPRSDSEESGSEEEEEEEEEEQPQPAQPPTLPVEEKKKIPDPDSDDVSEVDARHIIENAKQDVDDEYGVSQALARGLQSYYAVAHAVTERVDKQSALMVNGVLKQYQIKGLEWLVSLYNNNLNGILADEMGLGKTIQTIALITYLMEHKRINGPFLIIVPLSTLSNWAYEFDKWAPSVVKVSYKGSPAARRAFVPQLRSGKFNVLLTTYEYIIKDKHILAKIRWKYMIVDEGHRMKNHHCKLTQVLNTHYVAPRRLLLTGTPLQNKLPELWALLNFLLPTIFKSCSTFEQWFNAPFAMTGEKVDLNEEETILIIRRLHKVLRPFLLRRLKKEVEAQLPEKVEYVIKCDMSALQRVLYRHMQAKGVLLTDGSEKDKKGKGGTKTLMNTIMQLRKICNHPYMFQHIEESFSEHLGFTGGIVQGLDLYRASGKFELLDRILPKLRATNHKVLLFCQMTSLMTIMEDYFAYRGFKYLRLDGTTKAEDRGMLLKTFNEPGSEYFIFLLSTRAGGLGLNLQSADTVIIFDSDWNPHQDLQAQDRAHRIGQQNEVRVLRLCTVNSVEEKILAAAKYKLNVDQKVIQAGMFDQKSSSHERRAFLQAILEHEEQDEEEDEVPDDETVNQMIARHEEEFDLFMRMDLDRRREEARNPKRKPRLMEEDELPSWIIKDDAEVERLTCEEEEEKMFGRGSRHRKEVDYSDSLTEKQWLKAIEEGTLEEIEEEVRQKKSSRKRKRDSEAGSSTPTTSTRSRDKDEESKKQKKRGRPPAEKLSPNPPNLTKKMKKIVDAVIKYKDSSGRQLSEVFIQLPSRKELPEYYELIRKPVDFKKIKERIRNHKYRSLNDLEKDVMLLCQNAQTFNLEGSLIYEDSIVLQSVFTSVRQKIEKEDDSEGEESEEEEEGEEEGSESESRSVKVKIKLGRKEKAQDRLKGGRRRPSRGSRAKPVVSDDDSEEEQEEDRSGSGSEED

Structure (SMILES) | Oral bioavailability (in words) [1] | remaining (T = 60 min) [4] | CLint scaled at 1 h [4] [L/h/kg] | half-life at 1 h [4] [min] | microsomal CLint at 1 h [4] [µL/min/mg] | SMARCA4 level in TMT proteomics [5] | Phosphorylation of YAP1 at S109 [6] | Phosphorylation of YAP1 at S127 [6] | Clearance class in human microsomal assays ([8]; human microsomal assay) | remaining (T = 60 min) ([8]; human microsomal assay) | CLint scaled at 1 h ([8]; human, liver microsomes) [L/h/kg] | further results
Nc1nnc(-c2ccccc2O)cc1N1CCN(Cc2ccc(N3CCN(CCOc4cccc5c4C(=O)N(C4CCC(=O)NC4=O)C5=O)CC3)c(F)c2)CC1 (stereo not drawn) [YD54] | orally bioavailable | 0.414 | 7.17 | 45.9 | 30.2 | minimally altered | drastic increase | potent increase | moderate clearance | 0.3234 | 2.15 | reduction in body weight compared to controls [2]: < 20%; reduction in body weight compared to controls [3]: < 10%; reduction in body weight compared to controls [7]: < 20%; half-life at 1 h ([8]; human, liver microsomes, T1/2, human microsomal assay): 34.9 min
Nc1nnc(-c2ccccc2O)cc1N1CCN(Cc2ccc(N3CCC(CN4CCN(c5ccc6c(c5)C(=O)N(C5CCC(=O)NC5=O)C6=O)CC4)CC3)c(F)c2)CC1 (stereo not drawn) [YDR1] | robust oral bioavailability | 0.4998 | 5.51 | 59.7 | 23.2 | minimally altered | drastic increase | potent increase | slow clearance | 0.4743 | 1.29 | half-life ([1]; CD-1, mouse, plasma, oral, 25 mg/kg): > 1440 min; Tolerability in efficacy study [9]: well tolerated with no change in body weight; reduction in body weight compared to controls [9]: < 10%; degradation of SMARCA4 in spleen [10]: only modestly degraded; degradation of SMARCA2 in tumors [11]: about 50%; Body weight and signs of toxicity ([12]; daily treatment up to 80 mg/kg for 21 days): minimal body weight loss and no obvious signs of toxicity or morbidity; Tolerability ([12]; daily treatment with increasing doses up to 80 mg/kg for 21 days): well tolerated; T1/2 ([8]; human microsomal assay): 58.024 min; microsomal CLint at 1 h ([8]; human, liver microsomes): 23.9 µL/min/mg
C=CC(=O)N1CCN(c2nc(=O)n(-c3c(C)ccnc3C(C)C)c3nc(-c4c(O)cccc4F)c(F)cc23)[C@@H](C)C1 [sotorasib] | – | – | – | – | – | – | – | – | – | – | – | phosphorylation of ERK [13]: robustly reduced phosphorylation of ERK
